These results are taken from patent US20250129041A1, “MOLECULAR GLUE AND USES THEREOF” (ASTROGEN, INC., priority 2023, published 2025).

One data set deals with HCT116. The data set can be described thus: Dose response curve, cell survival, 48 hours, HCT116. It is filed as cell-based. Conditions: Homo sapiens, HCT-116, Colorectal Carcinoma, read-out: IC50 of AST-DT-218, HCT116. The procedure:
(§1) A DRC was created to determine whether AST-DT-218 is effective in killing various cancer cells. First, hepatoma cell lines (Huh7 and Hep3B), non-small cell lung cancer cell lines (NCI-H460 and NCI-H1299), pancreatic cancer cell lines (PANC-1 and Mia-Paca-2), rectal cancer cell lines (HT29 and HCT116), a gastric adenocarcinoma cell line (AGS), a malignant melanoma cell line (A375), and an adenocarcinoma cell line (MDA-MB-231) were prepared. Each cell line was cultured in a flask, and the cells which reached the logarithmic growth phase were prepared, washed with PBS, harvested with trypsin, centrifuged to adjust the cell density, and then resuspended in an appropriate culture medium, and plated into 96-well plates. After culturing until the cells attached to the plates and stabilized, AST-DT-218 and controls (lenalidomide and pomalidomide) were prepared and diluted to various concentrations (10-point by diluting by half from the highest concentration of 50 μM). […] After completion of the culture, cell survival was assessed using a cell counting method through cell nuclear staining. Data were collected by measuring cell survival at each concentration, and then DRC was created (see FIGS. 5 to 12) and IC50 values were calculated (see Table 8).

For another data set, the system named is HT29. The experiment in a line: Dose response curve, cell survival, 48 hours, HT29. It is filed as cell-based. The settings on record: Homo sapiens, HT-29, Colorectal Carcinoma, read-out: IC50 of AST-DT-218, HT29. On the procedure:
as §1

For the next data set, the system named is NCI-H460. The data set can be described thus: Dose response curve, cell survival, 48 hours, NCI-H460. Conditions: Homo sapiens, Non-Small Cell Lung Cancer, read-out: IC50 of AST-DT-218, NCI-H460. It is filed as cell-based. On the procedure:
as §1

The next data set concerns Hep3B. The data set can be described thus: Dose response curve, cell survival, 48 hours, Hep3B. The settings on record: Homo sapiens, Hepatocellular Carcinoma, read-out: IC50 of AST-DT-218, Hep3B. It is filed as cell-based. On the procedure:
as §1

The nature of data set [1]: Maximum tolerated dose (MTD) test. It is filed as in vivo. Conditions: mice, daily injection day 1 to day 5, highest dose 20 mg/kg. On the procedure: The in vivo maximum tolerated dose (MTD) of AST-DT-218 was evaluated to determine the highest dose at which AST-DT-218 could be safely administered to experimental animals. First, the compound AST-DT-218 and the preparation solvent to be used in the experiment were prepared. The solvent was a mixture of 5% Tween 80, 40% PEG400, 10% DMSO, and 45% DPBS, and AST-DT-218 was prepared according to each dose as shown in Table 6 below. Mice (n=5) to be used in the experiment were prepared and divided into five groups to perform the experiment. The control group was injected with only 0 mg/kg of the solvent, and the remaining groups were injected with the AST-DT-218 solution at 2.5 mg/kg, 5 mg/kg, 10 mg/kg, and 20 mg/kg, respectively, and the injection amount was set to 0.1 mL for a 20 g mouse.
From day 1 to day 5, the injections were administered at the same time daily, and the changes in weight and abnormal behaviors of the mice were observed and data were collected during the experiment.

The target in a further data set is hERG channel (Homo sapiens (Human), UniProt Q12809). The experiment in a line: hERG ligand binding assay. Conditions: membranes of hERG channel-expressing HEK293 cell line. The procedure: Additionally, a ligand binding assay was performed to measure the affinity of AST-DT-218 that binds to the hERG channel. First, a hERG channel-expressing cell line (HEK293) was cultured, and then the cells were centrifuged to extract the cell membrane, and membrane proteins were prepared using a cell lysis reagent. A labeled hERG ligand was prepared and AST-DT-218 was dissolved in a solvent (DMSO) and diluted to a concentration (1 μM). After dispensing the cell membrane proteins into a 96-well plate or appropriate experimental equipment, competitive binding experiments were performed by adding AST-DT-218 at various concentrations to each well and incubated for 1 to 2 hours. After completion of the binding, the unbound ligands were washed using a recovery solution to separate the same, the extent of ligand binding was measured using a radiation detection device or fluorescence reader, and the signal intensities were analyzed to calculate the ligand binding inhibition ratio. The degree of binding inhibition according to the concentration of AST-DT-218 was plotted to derive the IC50 value.
For orientation: The hERG channel carries a current that helps repolarise heart muscle cells.

A further data set deals with SNU475. The data set can be described thus: HCC cell survival by cell nuclear staining, 24 hours, SNU475. It is filed as cell-based. Conditions: Homo sapiens, SNU-475. On the procedure: An indication expansion experiment was performed to evaluate the potential of AST-DT-218 for treating hepatocellular carcinoma (HCC). First, HCC cell lines (Huh7, Hep3B, SNU449, and SNU475) were prepared, and AST-DT-218 and Sorafenib were at the highest concentration of 50 μM, serially diluted by half starting therefrom, thereby preparing 10 concentrations (50 μM, 25 μM, 12.5 μM, etc.). HCC cell lines (Huh7, Hep3B, SNU449, SNU475) were seeded into 96-well plates, in which each well was treated with AST-DT-218 and Sorafenib solutions, and the cells were cultured in an incubator for 24 hours. Then, the cell survival at each concentration was evaluated by measuring the cell count using cell nuclear staining, and a concentration-response curve of cell survival was created based on the data, and the IC50 value was derived.

The next data set concerns Mia-Paca-2. The data set can be described thus: Dose response curve, cell survival, 48 hours, Mia-Paca-2. It is filed as cell-based. Conditions: Homo sapiens, Pancreatic Carcinoma, read-out: IC50 of AST-DT-218, Mia-Paca-2. On the procedure: as §1
For another data set, the target named is CRBN proteins (Homo sapiens (Human), UniProt Q96SW2). The experiment in a line: CRBN affinity test. It is filed as binding. Conditions: purified CRBN proteins expressed in E. coli. The procedure:
First, CRBN proteins were expressed in E. coli and purified, and then the purified CRBN proteins were dissolved in a buffer solution (PBS). […] After the mixture was sufficiently mixed and reacted, the binding strength at each concentration was measured to collect data, and a binding curve was created therefrom (see FIG. 13), and the KD (equilibrium dissociation constant) values were derived therefrom (see Table 9 and FIG. 14).

For the next data set, the system named is Huh7. The experiment in a line: Dose response curve, cell survival, 48 hours, Huh7. The settings on record: Homo sapiens, Huh-7, Hepatocellular Carcinoma, read-out: IC50 of AST-DT-218, Huh7. It is filed as cell-based. The procedure:
as §1

The next data set deals with A375. The data set can be described thus: Dose response curve, cell survival, 48 hours, A375. It is filed as cell-based. Conditions: Homo sapiens, A-375, Malignant Melanoma, read-out: IC50 of AST-DT-218, A375. The procedure:
as §1

Chain of hERG channel (Q12809 whole entry): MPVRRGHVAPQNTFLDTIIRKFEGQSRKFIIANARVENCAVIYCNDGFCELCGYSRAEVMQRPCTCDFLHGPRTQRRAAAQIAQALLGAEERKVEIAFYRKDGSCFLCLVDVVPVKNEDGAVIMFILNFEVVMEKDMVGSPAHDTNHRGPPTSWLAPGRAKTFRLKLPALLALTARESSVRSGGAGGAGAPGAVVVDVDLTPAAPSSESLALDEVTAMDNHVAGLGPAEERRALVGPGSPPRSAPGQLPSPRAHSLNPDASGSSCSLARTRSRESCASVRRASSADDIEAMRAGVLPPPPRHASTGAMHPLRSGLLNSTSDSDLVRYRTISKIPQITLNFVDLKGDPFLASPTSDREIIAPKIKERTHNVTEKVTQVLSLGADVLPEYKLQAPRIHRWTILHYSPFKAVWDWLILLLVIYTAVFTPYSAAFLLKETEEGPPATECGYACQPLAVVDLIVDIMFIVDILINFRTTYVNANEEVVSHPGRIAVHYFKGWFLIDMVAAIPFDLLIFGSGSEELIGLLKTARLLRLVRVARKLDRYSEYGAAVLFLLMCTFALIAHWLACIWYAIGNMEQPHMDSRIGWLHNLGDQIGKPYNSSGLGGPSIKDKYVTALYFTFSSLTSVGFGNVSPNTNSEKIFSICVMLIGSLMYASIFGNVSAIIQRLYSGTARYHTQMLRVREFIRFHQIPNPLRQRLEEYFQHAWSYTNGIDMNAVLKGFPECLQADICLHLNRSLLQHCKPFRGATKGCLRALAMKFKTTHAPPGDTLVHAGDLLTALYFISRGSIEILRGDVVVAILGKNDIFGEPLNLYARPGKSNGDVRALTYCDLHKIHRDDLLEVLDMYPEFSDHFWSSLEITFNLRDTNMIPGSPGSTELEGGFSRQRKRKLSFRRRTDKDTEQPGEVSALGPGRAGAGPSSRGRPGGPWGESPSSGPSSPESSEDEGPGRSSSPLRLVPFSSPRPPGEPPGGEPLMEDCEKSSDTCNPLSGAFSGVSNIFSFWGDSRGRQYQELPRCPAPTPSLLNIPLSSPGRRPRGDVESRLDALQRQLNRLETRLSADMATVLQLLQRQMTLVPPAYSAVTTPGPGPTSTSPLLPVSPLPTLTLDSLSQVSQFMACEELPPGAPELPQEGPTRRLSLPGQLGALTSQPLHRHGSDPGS
Chain of CRBN proteins (Q96SW2 whole entry): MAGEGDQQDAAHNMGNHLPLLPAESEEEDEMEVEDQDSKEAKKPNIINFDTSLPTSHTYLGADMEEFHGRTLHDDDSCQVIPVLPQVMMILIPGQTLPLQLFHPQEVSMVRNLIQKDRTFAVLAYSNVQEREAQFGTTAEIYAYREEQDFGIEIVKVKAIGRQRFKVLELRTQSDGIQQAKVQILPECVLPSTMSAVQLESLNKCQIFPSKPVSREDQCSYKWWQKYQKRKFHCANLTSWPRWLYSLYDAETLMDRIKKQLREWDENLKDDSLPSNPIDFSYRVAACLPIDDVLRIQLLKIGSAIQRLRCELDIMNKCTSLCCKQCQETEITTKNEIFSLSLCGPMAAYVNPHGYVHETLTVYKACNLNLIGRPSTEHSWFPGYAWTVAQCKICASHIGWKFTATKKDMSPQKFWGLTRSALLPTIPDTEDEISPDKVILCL

In general, IC50 refers to the concentration that inhibits the measured activity by half. For orientation: Kd means the concentration at which binding is half-saturated. A low value points to higher affinity. For `COc1ccc([C@@H](C)Nc2cccc3c2C(=O)N(C2CCC(=O)NC2=O)C3=O)cc1` (stereo partly drawn) [AST-DT-218, 2-(2,6-dioxopiperidin-3-yl)-4-(((R)-1-(4-methoxyphenyl)ethyl)amino)isoindoline-1,3-dione], the IC50 in the data set with HCT116 is 187 nM; in the data set on HT29, 340 nM; in the data set with NCI-H460, 242 nM; with Hep3B, 882 nM; in the data set with SNU475, 1450 nM; with Mia-Paca-2 it was 292 nM. Moreover, the IC50 in the data set with Huh7 came to 693 nM; with A375 it was 227 nM. The “weight loss or abnormal behavior” value in data set [1] is on record as “no weight loss or abnormal behavior”. Also, the “possibility of causing cardiotoxicity (hERG ligand binding)” value on hERG channel was “low possibility of causing cardiotoxicity”. On CRBN proteins, this compound came in with a Kd of 16 nM.
